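GI50 is the concentration that inhibits growth by half. TGI is the concentration that stops growth completely.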
Assays:
Assay in all cases: inhibition of tumour cell growth, NCI panel, 384-well format
786-0 renal = tested on: 786-0 renal
A498 renal = tested on: A498 renal
A549 NSCLC = tested on: A549 NSCLC
ACHN renal = tested on: ACHN renal
BT-549 breast = tested on: BT-549 breast
CAKI-1 renal = tested on: CAKI-1 renal
CCRF-CEM leukemia = tested on: CCRF-CEM leukemia
COLO 205 colon = tested on: COLO 205 colon
DU-145 prostate = tested on: DU-145 prostate
EKVX NSCLC = tested on: EKVX NSCLC
HCC-2998 colon = tested on: HCC-2998 colon
HCT-15 colon = tested on: HCT-15 colon
HL-60(TB) leukemia = tested on: HL-60(TB) leukemia
HOP-62 NSCLC = tested on: HOP-62 NSCLC
HOP-92 NSCLC = tested on: HOP-92 NSCLC
HS 578T breast = tested on: HS 578T breast
HT29 colon = tested on: HT29 colon
IGROV1 ovarian = tested on: IGROV1 ovarian
K-562 leukemia = tested on: K-562 leukemia
KM12 colon = tested on: KM12 colon
LOX IMVI melanoma = tested on: LOX IMVI melanoma
M14 melanoma = tested on: M14 melanoma
MALME-3M melanoma = tested on: MALME-3M melanoma
MCF7 breast = tested on: MCF7 breast
MDA-MB-231 breast = tested on: MDA-MB-231 breast
MDA-MB-435 melanoma = tested on: MDA-MB-435 melanoma
MDA-MB-468 breast = tested on: MDA-MB-468 breast
MOLT-4 leukemia = tested on: MOLT-4 leukemia
NCI-H226 lung = tested on: NCI-H226 lung
NCI-H23 lung = tested on: NCI-H23 lung
NCI-H322M lung = tested on: NCI-H322M lung
NCI-H460 NSCLC = tested on: NCI-H460 NSCLC
NCI-H522 lung = tested on: NCI-H522 lung
NCI/ADR-RES ovarian = tested on: NCI/ADR-RES ovarian
OVCAR-3 ovarian = tested on: OVCAR-3 ovarian
OVCAR-4 ovarian = tested on: OVCAR-4 ovarian
OVCAR-5 ovarian = tested on: OVCAR-5 ovarian
OVCAR-8 ovarian = tested on: OVCAR-8 ovarian
PC-3 prostate = tested on: PC-3 prostate
RPMI-8226 leukemia = tested on: RPMI-8226 leukemia
RXF 393 renal = tested on: RXF 393 renal
SF-268 CNS = tested on: SF-268 CNS
SF-295 CNS = tested on: SF-295 CNS
SF-539 CNS = tested on: SF-539 CNS
SK-MEL-28 melanoma = tested on: SK-MEL-28 melanoma
SK-MEL-5 melanoma = tested on: SK-MEL-5 melanoma
SK-OV-3 ovarian = tested on: SK-OV-3 ovarian
SN12C renal = tested on: SN12C renal
SNB-19 CNS = tested on: SNB-19 CNS
SNB-75 CNS = tested on: SNB-75 CNS
SR leukemia = tested on: SR leukemia
SW-620 colon = tested on: SW-620 colon
T-47D breast = tested on: T-47D breast
TK-10 renal = tested on: TK-10 renal
UACC-257 melanoma = tested on: UACC-257 melanoma
UACC-62 melanoma = tested on: UACC-62 melanoma
UO-31 renal = tested on: UO-31 renal
HCT-116 colon = tested on: HCT-116 colon
SK-MEL-2 melanoma = tested on: SK-MEL-2 melanoma
U251 glioblastoma = tested on: U251 glioblastoma

## Cc1cccc(N(C)C(=O)[C@@H]2[C@H](O)CCN2c2nc(C)cc(C(F)(F)F)c2C#N)c1
786-0 renal
  GI50: 33.3 µM
  TGI: > 100 µM
A498 renal
  GI50: 28.3 µM
  TGI: 96.1 µM
A549 NSCLC
  GI50: 26.9 µM
  TGI: > 100 µM
ACHN renal
  GI50: 31 µM
  TGI: > 100 µM
BT-549 breast
  GI50: 29.4 µM
  TGI: 65.4 µM
CAKI-1 renal
  GI50: 36.1 µM
  TGI: > 100 µM
CCRF-CEM leukemia
  GI50: 19.4 µM
  TGI: 36 µM
COLO 205 colon
  GI50: 37.9 µM
  TGI: > 100 µM
DU-145 prostate
  GI50: 31.3 µM
  TGI: 90.7 µM
EKVX NSCLC
  GI50: 24.4 µM
  TGI: 58.1 µM
HCC-2998 colon
  GI50: 24.8 µM
  TGI: 54.4 µM
HCT-15 colon
  GI50: 32 µM
  TGI: > 100 µM
HL-60(TB) leukemia
  GI50: 19.4 µM
  TGI: 33.8 µM
HOP-62 NSCLC
  GI50: 27.2 µM
  TGI: 91.7 µM
HOP-92 NSCLC
  GI50: 22.9 µM
  TGI: 61 µM
HS 578T breast
  GI50: 21 µM
  TGI: 52.3 µM
HT29 colon
  GI50: 32.7 µM
  TGI: > 100 µM
IGROV1 ovarian
  GI50: 28 µM
  TGI: 71.7 µM
K-562 leukemia
  GI50: 33.1 µM
  TGI: > 100 µM
KM12 colon
  GI50: 33.3 µM
  TGI: > 100 µM
LOX IMVI melanoma
  GI50: 30.7 µM
  TGI: 80.8 µM
M14 melanoma
  GI50: 43.7 µM
  TGI: > 100 µM
MALME-3M melanoma
  GI50: 22 µM
  TGI: 66.7 µM
MCF7 breast
  GI50: 27.9 µM
  TGI: 71.6 µM
MDA-MB-231 breast
  GI50: 47.9 µM
  TGI: > 100 µM
MDA-MB-435 melanoma
  GI50: 37.5 µM
  TGI: > 100 µM
MDA-MB-468 breast
  GI50: 20 µM
  TGI: 38.5 µM
MOLT-4 leukemia
  GI50: 14.8 µM
  TGI: 28.2 µM
NCI-H226 lung
  GI50: 21 µM
  TGI: 64.8 µM
NCI-H23 lung
  GI50: 34.4 µM
  TGI: > 100 µM
NCI-H322M lung
  GI50: 36.4 µM
  TGI: > 100 µM
NCI-H460 NSCLC
  GI50: 30.2 µM
  TGI: 87 µM
NCI-H522 lung
  GI50: 28.1 µM
  TGI: 70 µM
NCI/ADR-RES ovarian
  GI50: 23.5 µM
  TGI: 63.8 µM
OVCAR-3 ovarian
  GI50: 20.1 µM
  TGI: 43.5 µM
OVCAR-4 ovarian
  GI50: 30.4 µM
  TGI: 73 µM
OVCAR-5 ovarian
  GI50: 35.2 µM
  TGI: > 100 µM
OVCAR-8 ovarian
  GI50: 32.9 µM
  TGI: > 100 µM
PC-3 prostate
  GI50: 24.5 µM
  TGI: 65.3 µM
RPMI-8226 leukemia
  GI50: 13.6 µM
  TGI: 26.7 µM
RXF 393 renal
  GI50: 21.5 µM
  TGI: 58.6 µM
SF-268 CNS
  GI50: 38.9 µM
  TGI: > 100 µM
SF-295 CNS
  GI50: 21.4 µM
  TGI: 52 µM
SF-539 CNS
  GI50: 37.2 µM
  TGI: > 100 µM
SK-MEL-28 melanoma
  GI50: 43.3 µM
  TGI: > 100 µM
SK-MEL-5 melanoma
  GI50: 20.7 µM
  TGI: 37.3 µM
SK-OV-3 ovarian
  GI50: 35 µM
  TGI: 96.4 µM
SN12C renal
  GI50: 30.6 µM
  TGI: > 100 µM
SNB-19 CNS
  GI50: 37.6 µM
  TGI: > 100 µM
SNB-75 CNS
  GI50: 28.4 µM
  TGI: 91.2 µM
SR leukemia
  GI50: 15.9 µM
  TGI: 30 µM
SW-620 colon
  GI50: 53.3 µM
  TGI: > 100 µM
T-47D breast
  GI50: 37 µM
  TGI: > 100 µM
TK-10 renal
  GI50: 51.4 µM
  TGI: > 100 µM
UACC-257 melanoma
  GI50: 35.3 µM
  TGI: 76.6 µM
UACC-62 melanoma
  GI50: 38.1 µM
  TGI: > 100 µM
UO-31 renal
  GI50: 32.5 µM
  TGI: > 100 µM

## COCCNCc1ccc(-c2cc3nccc(Oc4ccc(NC(=S)NC(=O)Cc5ccc(F)cc5)cc4F)c3s2)nc1
786-0 renal
  GI50: 1.48 µM
  TGI: 2.82 µM
A498 renal
  GI50: 1.56 µM
  TGI: 2.9 µM
A549 NSCLC
  GI50: 1.68 µM
  TGI: 3.07 µM
ACHN renal
  GI50: 1.72 µM
  TGI: 3.11 µM
BT-549 breast
  GI50: 1.6 µM
  TGI: 2.95 µM
CAKI-1 renal
  GI50: 1.52 µM
  TGI: 2.86 µM
CCRF-CEM leukemia
  GI50: 0.868 µM
  TGI: 2.07 µM
COLO 205 colon
  GI50: 1.61 µM
  TGI: 2.98 µM
DU-145 prostate
  GI50: 1.86 µM
  TGI: 3.29 µM
HCC-2998 colon
  GI50: 1.85 µM
  TGI: 3.26 µM
HCT-116 colon
  GI50: 1.28 µM
  TGI: 2.56 µM
HCT-15 colon
  GI50: 1.71 µM
  TGI: 3.11 µM
HL-60(TB) leukemia
  GI50: 0.621 µM
  TGI: 1.75 µM
HOP-62 NSCLC
  GI50: 1.93 µM
  TGI: 3.35 µM
HOP-92 NSCLC
  GI50: 1.26 µM
  TGI: 2.52 µM
HT29 colon
  GI50: 1.16 µM
  TGI: 2.41 µM
IGROV1 ovarian
  GI50: 1.64 µM
  TGI: 3.54 µM
K-562 leukemia
  GI50: 0.177 µM
  TGI: 0.343 µM
KM12 colon
  GI50: 0.385 µM
  TGI: 1.44 µM
LOX IMVI melanoma
  GI50: 2.02 µM
  TGI: 3.46 µM
M14 melanoma
  GI50: 1.58 µM
  TGI: 2.94 µM
MALME-3M melanoma
  GI50: 1.54 µM
  TGI: 2.89 µM
MCF7 breast
  GI50: 1.48 µM
  TGI: 2.81 µM
MDA-MB-231 breast
  GI50: 1.44 µM
  TGI: 2.76 µM
MDA-MB-435 melanoma
  GI50: 1.86 µM
  TGI: 3.27 µM
MDA-MB-468 breast
  GI50: 1.85 µM
  TGI: 3.25 µM
MOLT-4 leukemia
  GI50: 0.582 µM
  TGI: 1.78 µM
NCI-H226 lung
  GI50: 1.95 µM
  TGI: 3.62 µM
NCI-H23 lung
  GI50: 0.486 µM
  TGI: 2.2 µM
NCI-H322M lung
  GI50: 1.7 µM
  TGI: 3.09 µM
NCI-H460 NSCLC
  GI50: 1.42 µM
  TGI: 2.75 µM
NCI-H522 lung
  GI50: 1.67 µM
  TGI: 3.03 µM
NCI/ADR-RES ovarian
  GI50: 1.58 µM
  TGI: 2.93 µM
OVCAR-3 ovarian
  GI50: 1.89 µM
  TGI: 3.31 µM
OVCAR-4 ovarian
  GI50: 1.09 µM
  TGI: 2.3 µM
OVCAR-5 ovarian
  GI50: 1.94 µM
  TGI: 3.38 µM
OVCAR-8 ovarian
  GI50: 1.42 µM
  TGI: 2.74 µM
PC-3 prostate
  GI50: 1.81 µM
  TGI: 3.21 µM
RPMI-8226 leukemia
  GI50: 0.614 µM
  TGI: 1.82 µM
RXF 393 renal
  GI50: 1.59 µM
  TGI: 2.94 µM
SF-268 CNS
  GI50: 1.57 µM
  TGI: 2.92 µM
SF-295 CNS
  GI50: 0.875 µM
  TGI: 2.11 µM
SF-539 CNS
  GI50: 0.969 µM
  TGI: 2.15 µM
SK-MEL-2 melanoma
  GI50: 1.96 µM
  TGI: 3.38 µM
SK-MEL-28 melanoma
  GI50: 1.5 µM
  TGI: 2.83 µM
SK-MEL-5 melanoma
  GI50: 1.26 µM
  TGI: 2.52 µM
SK-OV-3 ovarian
  GI50: 1.55 µM
  TGI: 2.89 µM
SN12C renal
  GI50: 1.14 µM
  TGI: 2.35 µM
SNB-19 CNS
  GI50: 1.78 µM
  TGI: 3.19 µM
SR leukemia
  GI50: 0.187 µM
  TGI: 0.33 µM
SW-620 colon
  GI50: 1.55 µM
  TGI: 2.92 µM
T-47D breast
  GI50: 1.48 µM
  TGI: 2.81 µM
TK-10 renal
  GI50: 1.78 µM
  TGI: 3.17 µM
U251 glioblastoma
  GI50: 1.3 µM
  TGI: 2.58 µM
UACC-257 melanoma
  GI50: 1.09 µM
  TGI: 2.29 µM
UACC-62 melanoma
  GI50: 1.52 µM
  TGI: 2.86 µM
UO-31 renal
  GI50: 1.6 µM
  TGI: 2.95 µM
